Laboratory results reported in ChEMBL document CHEMBL5096234, “Discovery, Optimization, and Evaluation of Selective CDK4/6 Inhibitors for the Treatment of Breast Cancer” (J Med Chem, 2022).
pIC50: −log10 of the molar value. Calls of active or inactive are those of the source. No cut-off for these calls is given here.

Key:
[1] = […] stability in human liver microsomes assessed as intrinsic clearance preincubated for 10 mins followed by NADPH addition by LC-MS/MS analysis; format: ADME, Microsome; conditions: read-out: CLH
[2] = Acute toxicity in ICR mouse assessed as spleen lesions at 5000 mg/kg, po administered as single dose and measured every 2 days for 14 days by H and E staining based analysis; format: organism-based; conditions: in vivo, 336 h, time 14 day
[3] = molecular target: T1, Retinoblastoma-associated protein (Homo sapiens) (UniProt P06400); assay: Inhibition of RB phosphorylation in human T47D cells at 1 to 4 uM incubated for 24 hrs by Western blot analysis; format: cell-based; conditions: dose 1-4 µM
T1 sequence (whole entry): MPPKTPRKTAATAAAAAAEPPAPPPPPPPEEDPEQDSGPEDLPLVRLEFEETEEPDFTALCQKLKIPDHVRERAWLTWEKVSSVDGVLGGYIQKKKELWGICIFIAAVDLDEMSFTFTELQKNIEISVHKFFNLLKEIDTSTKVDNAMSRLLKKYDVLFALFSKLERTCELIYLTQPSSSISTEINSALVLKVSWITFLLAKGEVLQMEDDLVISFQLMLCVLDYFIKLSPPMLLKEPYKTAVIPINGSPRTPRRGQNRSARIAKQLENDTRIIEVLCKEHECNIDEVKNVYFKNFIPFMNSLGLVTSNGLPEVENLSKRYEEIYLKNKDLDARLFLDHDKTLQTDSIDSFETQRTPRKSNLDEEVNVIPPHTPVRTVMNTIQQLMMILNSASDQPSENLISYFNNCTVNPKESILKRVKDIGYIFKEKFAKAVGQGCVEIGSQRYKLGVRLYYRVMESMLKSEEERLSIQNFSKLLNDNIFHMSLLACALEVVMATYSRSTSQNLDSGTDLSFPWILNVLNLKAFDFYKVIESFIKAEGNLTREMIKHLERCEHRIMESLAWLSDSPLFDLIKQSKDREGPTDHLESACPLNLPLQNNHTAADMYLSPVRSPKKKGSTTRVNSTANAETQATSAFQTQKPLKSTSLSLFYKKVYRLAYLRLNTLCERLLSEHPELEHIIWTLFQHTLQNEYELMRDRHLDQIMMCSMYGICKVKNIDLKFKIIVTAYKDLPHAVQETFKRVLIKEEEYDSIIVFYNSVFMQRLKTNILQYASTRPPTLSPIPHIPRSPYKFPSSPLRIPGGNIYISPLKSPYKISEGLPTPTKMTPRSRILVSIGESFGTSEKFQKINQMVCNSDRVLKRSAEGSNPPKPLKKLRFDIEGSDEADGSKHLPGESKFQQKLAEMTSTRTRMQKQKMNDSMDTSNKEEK

[4] = AUC (0 to infinity) in Sprague-Dawley rat 10 mg/kg, po by LC/MS/MS analysis; format: ADME, organism-based; design: time infinity, dose 10 mg/kg, route po; conditions: in vivo
[5] = Half life in Sprague-Dawley rat 1 mg/kg, iv by LC/MS/MS analysis; format: ADME, organism-based; conditions: in vivo
MCF7 [6] = assay: Induction of cell cycle arrest in human MCF7 cells assessed as accumulation of cells at G2 phase at 1.5 uM incubated for 24 hrs by propidium iodide staining based flow cytometry analysis (reference value: 29.66%); format: functional
MCF7 [7] = assay: Induction of cell cycle arrest in human MCF7 cells assessed as accumulation of cells at G2 phase at 3 uM incubated for 24 hrs by propidium iodide staining based flow cytometry analysis (reference value: 29.66%); format: functional
[8] = AUC (0 to infinity) in Sprague-Dawley rat 1 mg/kg, iv by LC/MS/MS analysis; format: ADME, organism-based; design: time infinity, dose 1 mg/kg, route iv; conditions: in vivo
[9] = Tmax in Sprague-Dawley rat 10 mg/kg, po by LC/MS/MS analysis; format: ADME, organism-based; conditions: in vivo
CDK9/cyclin T1 = CDK9/cyclin T1 (Homo sapiens, UniProt P50750); assay: Inhibition of CDK9/Cyclin T1 (unknown origin) in presence of ATP by time resolved-FRET assay; format: protein-complex assay
Sequence of CDK9/cyclin T1 (O60563 whole entry): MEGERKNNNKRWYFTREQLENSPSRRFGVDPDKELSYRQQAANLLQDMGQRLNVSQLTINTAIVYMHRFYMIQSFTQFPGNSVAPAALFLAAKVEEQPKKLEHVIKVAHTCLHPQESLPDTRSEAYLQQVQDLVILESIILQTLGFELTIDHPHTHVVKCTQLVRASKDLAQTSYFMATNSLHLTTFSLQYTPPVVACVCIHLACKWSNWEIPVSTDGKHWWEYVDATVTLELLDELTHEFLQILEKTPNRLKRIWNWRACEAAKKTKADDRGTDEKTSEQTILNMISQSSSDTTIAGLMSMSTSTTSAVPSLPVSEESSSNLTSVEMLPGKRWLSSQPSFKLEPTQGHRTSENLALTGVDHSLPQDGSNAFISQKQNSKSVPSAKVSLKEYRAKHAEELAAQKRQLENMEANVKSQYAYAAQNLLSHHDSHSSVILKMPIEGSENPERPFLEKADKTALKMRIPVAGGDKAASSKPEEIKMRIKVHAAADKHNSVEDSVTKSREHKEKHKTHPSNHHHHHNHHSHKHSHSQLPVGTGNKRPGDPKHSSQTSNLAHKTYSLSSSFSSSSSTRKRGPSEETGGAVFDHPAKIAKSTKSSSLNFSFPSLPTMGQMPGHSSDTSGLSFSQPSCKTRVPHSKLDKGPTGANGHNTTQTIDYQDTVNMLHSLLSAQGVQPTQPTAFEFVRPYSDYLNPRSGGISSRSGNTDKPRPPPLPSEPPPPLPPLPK
Sequence of CDK9/cyclin T1 (P50750 whole entry): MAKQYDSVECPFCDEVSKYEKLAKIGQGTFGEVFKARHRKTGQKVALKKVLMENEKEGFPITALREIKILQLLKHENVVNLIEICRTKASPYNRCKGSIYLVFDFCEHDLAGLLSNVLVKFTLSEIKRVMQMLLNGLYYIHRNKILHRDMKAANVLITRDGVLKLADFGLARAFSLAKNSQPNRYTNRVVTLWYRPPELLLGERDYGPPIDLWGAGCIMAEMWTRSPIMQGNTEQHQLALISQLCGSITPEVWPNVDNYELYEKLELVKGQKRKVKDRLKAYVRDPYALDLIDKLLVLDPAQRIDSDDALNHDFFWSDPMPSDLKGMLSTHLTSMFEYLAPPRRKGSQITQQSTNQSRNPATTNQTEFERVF

CDK7/Cyclin H/MNAT1 = CDK7/Cyclin H/MNAT1 (Homo sapiens, UniProt P50613); assay: Inhibition of CDK7/cyclin H/MAT1 (unknown origin) in presence of ATP by time resolved-FRET assay; format: protein-complex assay
Sequence of CDK7/Cyclin H/MNAT1 (P51946 whole entry): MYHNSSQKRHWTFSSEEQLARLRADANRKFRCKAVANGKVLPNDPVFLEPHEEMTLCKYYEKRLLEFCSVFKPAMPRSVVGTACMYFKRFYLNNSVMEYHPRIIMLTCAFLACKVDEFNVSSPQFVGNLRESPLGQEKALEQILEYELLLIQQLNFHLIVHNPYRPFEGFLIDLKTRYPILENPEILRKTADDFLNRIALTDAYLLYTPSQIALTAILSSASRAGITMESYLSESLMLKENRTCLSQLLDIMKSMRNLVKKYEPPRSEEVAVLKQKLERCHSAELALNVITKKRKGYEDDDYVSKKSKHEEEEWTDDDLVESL
Sequence of CDK7/Cyclin H/MNAT1 (P50613 whole entry): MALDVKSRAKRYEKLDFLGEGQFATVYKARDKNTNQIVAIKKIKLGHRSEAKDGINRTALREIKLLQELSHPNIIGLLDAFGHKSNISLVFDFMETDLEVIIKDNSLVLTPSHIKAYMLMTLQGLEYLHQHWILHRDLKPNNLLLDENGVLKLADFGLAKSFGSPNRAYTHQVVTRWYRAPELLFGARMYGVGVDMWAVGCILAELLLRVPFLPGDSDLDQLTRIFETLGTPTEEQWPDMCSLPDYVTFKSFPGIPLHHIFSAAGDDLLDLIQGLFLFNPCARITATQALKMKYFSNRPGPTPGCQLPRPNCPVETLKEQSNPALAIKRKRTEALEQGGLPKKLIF
Sequence of CDK7/Cyclin H/MNAT1 (P51948 whole entry, further chain): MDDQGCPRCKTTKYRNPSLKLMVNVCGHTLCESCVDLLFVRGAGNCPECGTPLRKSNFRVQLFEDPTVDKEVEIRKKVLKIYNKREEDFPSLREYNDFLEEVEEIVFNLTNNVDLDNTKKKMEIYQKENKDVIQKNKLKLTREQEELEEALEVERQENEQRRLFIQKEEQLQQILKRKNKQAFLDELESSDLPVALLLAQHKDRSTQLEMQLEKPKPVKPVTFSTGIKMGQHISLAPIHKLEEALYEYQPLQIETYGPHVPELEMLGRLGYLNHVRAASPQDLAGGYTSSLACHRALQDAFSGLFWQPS

T47D [10] = assay: Inhibition of clone formation in human T47D cells at 1 to 8 uM by crystal voilet staining based analysis; format: functional, cell-based; conditions: dose 1-8 µM, time 2.0 weeks
T47D [11] = assay: Antiproliferative activity against human T47D cells assessed as inhibition of cell growth at 1 to 4 uM incubated for 5 days by CCK-8 assay; format: functional, cell-based; conditions: dose 1-4 µM, time 5.0 day
[12] = Inhibition of CDK1/cyclin B (unknown origin) in presence of ATP by time resolved-FRET assay; design: species or system Homo sapiens
T47D [13] = assay: Induction of cell cycle arrest in human T47D cells assessed as accumulation of cells at G2 phase at 1 uM incubated for 24 hrs by propidium iodide staining based flow cytometry analysis (reference value: 16.57%); format: functional
[14] = MRT (0 to infinity) in Sprague-Dawley rat 1 mg/kg, iv by LC/MS/MS analysis; format: ADME, organism-based; conditions: in vivo
MCF7 [15] = assay: Downregulation cyclin D1 level in human MCF7 cells incubated for 24 hrs by Western blot analysis; format: functional, cell-based; conditions: dose 1.5-5 µM, DDE = dose-dependent effect
[16] = Acute toxicity in ICR mouse assessed as change in liver weight at 1000 to 5000 mg/kg, po administered as single dose and measured every 2 days for 14 days; format: organism-based; conditions: in vivo, 336 h, dose 1000-5000 mg/kg, time 14 day
T47D [17] = assay: Induction of cell cycle arrest in human T47D cells assessed as accumulation of cells at G1 phase at 2 uM incubated for 24 hrs by propidium iodide staining based flow cytometry analysis (reference value: 69.55 %); format: functional
T47D [18] = assay: Induction of cell cycle arrest in human T47D cells assessed as accumulation of cells at G2 phase at 4 uM incubated for 24 hrs by propidium iodide staining based flow cytometry analysis (reference value: 16.57%); format: functional
MCF7 [19] = assay: Induction of cell cycle arrest in human MCF7 cells assessed as accumulation of cells at G1 phase at 1.5 uM incubated for 24 hrs by propidium iodide staining based flow cytometry analysis (reference value: 57.38%); format: functional
T47D [20] = assay: Downregulation c-MYC level in human T47D cells incubated for 24 hrs by Western blot analysis; format: functional, cell-based; conditions: dose 1-4 µM, DDE = dose-dependent effect
[21] = Acute toxicity in ICR mouse assessed as heart lesions at 5000 mg/kg, po administered as single dose and measured every 2 days for 14 days by H and E staining based analysis; format: organism-based; conditions: in vivo, 336 h, time 14 day
[22] = Acute toxicity in ICR mouse assessed as heart kidney at 5000 mg/kg, po administered as single dose and measured every 2 days for 14 days by H and E staining based analysis; format: organism-based; conditions: in vivo, 336 h, time 14 day
[23] = Acute toxicity in ICR mouse assessed as change in spleen weight at 1000 to 5000 mg/kg, po administered as single dose and measured every 2 days for 14 days; format: organism-based; conditions: in vivo, 336 h, dose 1000-5000 mg/kg, time 14 day
T47D [24] = assay: Induction of cell cycle arrest in human T47D cells assessed as accumulation of cells at G1 phase at 4 uM incubated for 24 hrs by propidium iodide staining based flow cytometry analysis (reference value: 69.55 %); format: functional
[25] = […] stability in human liver microsomes assessed as half life preincubated for 10 mins followed by NADPH addition by LC-MS/MS analysis; format: ADME, Microsome

In the case of `CCN1CCc2cc(-c3nc(Nc4ccc(N5CCNCC5)cn4)ncc3F)ccc2C1=O`, the CLint scaled [1] was 11.5 mL/min/kg, the Activity [2] was “Non-Toxic” and the inhibition [3] was “Active”. The AUC(0-inf) [4] was 1610 ng·h/mL, the half-life [5] was 2.62 h and the Activity (MCF7 [6]) was 13.57%. It also gave an Activity (MCF7 [7]) of 11.42%, an AUC(0-inf) [8] of 373 ng·h/mL and a Tmax [9] of 6 h. The pIC50 (CDK9/cyclin T1) was 5.57, the pIC50 (CDK7/Cyclin H/MNAT1) was 5.59 and the inhibition (T47D [10]) was “Active”. For the same compound, the inhibition (T47D [11]) was “Active”, the pIC50 [12] was less than 5.00 and the Activity (T47D [13]) was 7.59%. The MRT inf [14] was 3.5 h, the Activity (MCF7 [15]) was “Dde” and the Activity [16] was “Non-Toxic”. The Activity (T47D [17]) was 85.48%, the Activity (T47D [18]) was 5.87% and the Activity (MCF7 [19]) was 79.52%. The Activity (T47D [20]) was “Dde”, the Activity [21] was “Non-Toxic” and the Activity [22] was “Non-Toxic”. The Activity [23] was “Non-Toxic”, the Activity (T47D [24]) was 87.12% and the half-life [25] was 1.8 h.
